The experiment concerns the target T1, KRAS 4B G12C protein (Homo sapiens, UniProt P01116, G12C).
T1 construct: This protein contained 188 amino acids in total, including an N-terminal 6-Histidine tag; made in house; host or cells: E. coli BL21
In words: In vitro covalent adduct formation (CAF) assay by LC-MS. The class given is binding. Conditions: compound 10 μM, protein 5 μM, 22° C., percentage of protein bound by the compound. In a few lines:
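Percent of protein covalently modified was quantified from intact-mass LC-MS ratios of free versus adducted protein, adducts within 1 Da of expected mass. Reactions: 10 μM compound, 5 μM His-TEV-KRAS 4B G12C (1-169) in TBS pH 7.4, 4% DMSO, 22° C., one hour, run in duplicate.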

Each structure is given as a SMILES string.

For `C=CC(=O)N1CCN(c2nc(OCCN3CCOCC3)nc3c2CN(Cc2cc(OC)ccc2C)C3)[C@@H](C)C1` [1-110], the “CAF (10 minutes/60 minutes) at 10 micromolar: 10 minutes” value (“CAF … at 10 micromolar: 10 minutes” below) is reported as 0%/ 0% and the “CAF (10 minutes/60 minutes) at 10 micromolar: 60 minutes” value (shortened to “CAF … at 10 micromolar: 60 minutes”) worked out at 0%/ 0%.
Regarding `C=CC(=O)N1CCN(c2nc(OC[C@@H]3CCCN3C)nc3c2CN(Cc2cc(O)ccc2F)C3)C[C@@H]1CC#N` [1-46], the “CAF … at 10 micromolar: 10 minutes” value worked out at 98% and the “CAF … at 10 micromolar: 60 minutes” value is reported as 99%.
As to `C=C(F)C(=O)N1CCN(c2nc(OC[C@@H]3CCCN3C)nc3c2CN(Cc2nc(N)cc(C)c2C(F)(F)F)C3)C[C@@H]1CC#N` [1-334], the “CAF … at 10 micromolar: 10 minutes” value is 79% and the “CAF … at 10 micromolar: 60 minutes” value is 86%.
In the same order, the values of `C=CC(=O)N1CCN(c2nc(OC[C@@H]3CCCN3C)nc3c2CN(Cc2ccccc2Cl)C3)C[C@@H]1CC#N` [1-75] are 96% and 97%.
Take `C=CC(=O)N1CCN(c2nc(OC[C@@H]3CCCN3C)nc3c2CN(Cc2c(F)cccc2OC(F)F)C3)C[C@@H]1CC#N` [1-58]: the “CAF … at 10 micromolar: 10 minutes” value came out at 96% and the “CAF … at 10 micromolar: 60 minutes” value is 98%.
In the case of `C=CC(=O)N1C2CCCC1CN(c1nc(OC[C@@H]3CCCN3C)nc3c1CN(Cc1cc(OC)ccc1Cl)C3)C2` [1-148], the “CAF … at 10 micromolar: 10 minutes” value came out at 0%/ 0% and the “CAF … at 10 micromolar: 60 minutes” value is recorded as 0%/ 0%.
Turning to `C=CC(=O)N1CCN(c2nc(OC[C@@H]3CCCN3C)nc3c2CN(Cc2cc(F)ccc2C)C3)[C@@H](C)C1` [1-20], the “CAF … at 10 micromolar: 10 minutes” value is given as 0% and the “CAF … at 10 micromolar: 60 minutes” value was determined as 6%.
As to `C=CC(=O)N1CCN(c2nc(OC[C@@H]3CCCN3C)nc3c2CN(Cc2cc(O)ccc2Cl)C3)[C@@H](C)C1` [1-43], the “CAF … at 10 micromolar: 10 minutes” value was 97% and the “CAF … at 10 micromolar: 60 minutes” value worked out at 98%.
For `C=C(F)C(=O)N1CCN(c2nc(OCc3cncn3C)nc3c2CN(C2CCc4ccccc42)C3)C[C@@H]1CC#N` (stereo partly drawn) [1-140], the “CAF … at 10 micromolar: 10 minutes” value stood at 0%/ 0% and the “CAF … at 10 micromolar: 60 minutes” value is given as 0%/ 0%.

Values taken from patent US20210292330A1, “PYRROLIDINE-FUSED HETEROCYCLES” (Erasca, Inc., priority 2020, published 2021).
